Assay: Inhibition of Huntingtin polyQ 49 mutant in Huntington's disease patient derived human iPSC cells incubated for 48 hrs by HTRF assay
Format: cell-based

Row | IC50 | Structure (SMILES)
1 | < 100 nM | Cc1cn2nc(-c3cc(F)c4nc(N5CCC(N(C)C)CC5)oc4c3)cc(C(F)(F)F)c2n1
2 | < 100 nM | Cc1cn2nc(-c3cc(F)c4nc(C5CCNCC5)cn4c3)cc(C)c2n1
3 | < 100 nM | Cc1cn2nc(-c3cc(F)c4nc(C5CCN(C6CC6)CC5)cn4c3)cc(C(F)F)c2n1
4 | < 100 nM | Cc1cn2nc(-c3cc(F)c4nc(C5CCN(C6COC6)CC5)cn4c3)cc(C)c2n1
5 | < 100 nM | Cc1cn2nc(-c3cc(F)c4nn(C5CCNCC5)nc4c3)cc(C(F)F)c2n1
6 | < 100 nM | Cc1cn2nc(-c3cc(F)c4nc(C5CCNC5)cn4c3)cc(C)c2n1 (stereo unspecified)
